Test results reported in ChEMBL document CHEMBL5131471, “Design, synthesis and mechanism studies of novel dual PARP1/BRD4 inhibitors against pancreatic cancer” (Eur J Med Chem, 2022).
Calls of active or inactive are those of the source. The rule behind the calls is not given here.

Columns and labels:
SW1990 [1] = assay: Induction of cell cycle arrest in human SW1990 cells assessed as accumulation of cells at G0/G1 phase at 4 uM incubated for 4 days by propidium iodide staining based flow cytometry (reference value: 64.79%); assay type: functional; conditions: time 4 day
[2] = Toxicity in nude mouse xenografted with human SW1990 cells assessed as heart damage at 15 mg/kg, ip administered for 28 days by H and E staining based fluorescence microscopic analysis; assay type: organism-based; conditions: in vivo, 672 h, time 28 day
SW1990 [3] = assay: Induction of apoptosis in human SW1990 cells assessed as late apoptotic cells at 4 uM measured after 4 days by Annexin V-FITC and propidium iodide staining based flow cytometry (reference value: 7.23%); assay type: functional; conditions: time 4 day
SW1990 [4] = assay: Induction of cell cycle arrest in human SW1990 cells assessed as accumulation of cells at G2/M phase at 1 uM incubated for 4 days in presence of 3 uM Olaparib by propidium iodide staining based flow cytometry (reference value: 5.89%); assay type: functional; conditions: time 4 day
SW1990 [5] = assay: Effect on CDK6 gene expression in human SW1990 cells at 4 uM by Q-PCR analysis; assay type: functional, cell-based
SW1990 [6] = assay: Effect on CDC25B gene expression in human SW1990 cells at 1 uM in presence of Olaparib by Q-PCR analysis; assay type: functional, cell-based
SW1990 [7] = assay: Effect on FOXM1 gene expression in human SW1990 cells at 1 uM in presence of Olaparib by Q-PCR analysis; assay type: functional, cell-based
SW1990 [8] = assay: Effect on TOPBP1 gene expression in human SW1990 cells at 1 uM in presence of Olaparib by Q-PCR analysis; assay type: functional, cell-based
SW1990 [9] = assay: Downregulation of Ki67 expression in human SW1990 cells at 15 mg/kg, ip in presence of 45 mg/kg, ip Olaparib measured after 28 days by immuno histochemical staining based fluorescence microscopic analysis; assay type: functional, organism-based; conditions: time 28.0 day
Mus musculus [10] = assay: Upregulation of CDK6 expression in nude mouse xenografted with human SW1990 cells at 45 mg/kg, ip measured after 4 days by Q-PCR analysis; assay type: functional, organism-based; conditions: time 4.0 day
Mus musculus [11] = assay: Upregulation of CCNB1 expression in nude mouse xenografted with human SW1990 cells at 45 mg/kg, ip measured after 4 days by Q-PCR analysis; assay type: functional, organism-based; conditions: time 4.0 day
Mus musculus [12] = assay: Upregulation of CDC25B expression in nude mouse xenografted with human SW1990 cells at 45 mg/kg, ip measured after 4 days by Q-PCR analysis; assay type: functional, organism-based; conditions: time 4.0 day
Mus musculus [13] = assay: Upregulation of CDK1 expression in nude mouse xenografted with human SW1990 cells at 45 mg/kg, ip measured after 4 days by Western blot analysis; assay type: functional, organism-based; conditions: time 4.0 day
SW1990 [14] = assay: Effect on Rad51 gene expression in human SW1990 cells at 6 uM by Q-PCR analysis; assay type: functional, cell-based
SW1990 [15] = assay: Effect on ALDH1A1 gene expression in human SW1990 cells at 6 uM by Q-PCR analysis; assay type: functional, cell-based
SW1990 [16] = assay: Upregulation of ALDH1A1 expression in human SW1990 cells at 6 uM measured after 4 days by Western blot analysis; assay type: functional, cell-based; conditions: time 4.0 day
SW1990 [17] = assay: Antiproliferative activity against human SW1990 cells assessed as inhibition of cell growth measured after 4 days by MTT assay; assay type: functional, cell-based; conditions: SW1990, 96 h
CAPAN-1 = assay: Antiproliferative activity against human CAPAN-1 cells assessed as inhibition of cell growth measured after 4 days by MTT assay; assay type: functional, cell-based; conditions: CAPAN-1, 96 h
SW1990 [18] = assay: Antitumor activity against human SW1990 cells xenografted in nude mouse assessed as reduction in tumor weight at 30 mg/kg, ip administered for 28 days and measured every 3 days by vernier caliper method; assay type: functional, organism-based; conditions: time 28.0 day
[19] = Toxicity in nude mouse xenografted with human SW1990 cells assessed as heart damage at 30 mg/kg, ip administered for 28 days by H and E staining based fluorescence microscopic analysis; assay type: organism-based; conditions: in vivo, 672 h, time 28 day
[20] = Toxicity in nude mouse xenografted with human SW1990 cells assessed as spleen damage at 30 mg/kg, ip administered for 28 days by H and E staining based fluorescence microscopic analysis; assay type: organism-based; conditions: in vivo, 672 h, time 28 day
[21] = Toxicity in nude mouse xenografted with human SW1990 cells assessed as lung damage at 30 mg/kg, ip administered for 28 days by H and E staining based fluorescence microscopic analysis; assay type: organism-based; conditions: in vivo, 672 h, time 28 day
Mus musculus [22] = assay: Inhibition of PARP1 expression in nude mouse xenografted with human […] cells at 30 mg/kg, ip administered for 28 days by DAPI staining based laser confocal microscopic analysis; assay type: functional, organism-based; conditions: time 28.0 day
Mus musculus [23] = assay: Inhibition of BRD4 expression in nude mouse xenografted with human SW1900 cells at 30 mg/kg, ip administered for 28 days by Western blot analysis; assay type: functional, organism-based; conditions: time 28.0 day
SW1990 [24] = assay: Induction of apoptosis in human SW1990 cells assessed as late apoptotic cells at 1 uM measured after 4 days by Annexin V-FITC and propidium iodide staining based flow cytometry (reference value: 7.23%); assay type: functional; conditions: time 4 day
SW1990 [25] = assay: Induction of cell cycle arrest in human SW1990 cells assessed as accumulation of cells at G2/M phase at 1 uM incubated for 4 days by propidium iodide staining based flow cytometry (reference value: 5.89%); assay type: functional; conditions: time 4 day
Mus musculus [26] = assay: Inhibition of E2F2 expression in nude mouse xenografted with human SW1990 cells at 30 mg/kg, ip measured after 4 days by Q-PCR analysis; assay type: functional, organism-based; conditions: time 4.0 day
Mus musculus [27] = assay: Inhibition of CDK6 expression in nude mouse xenografted with human SW1990 cells at 30 mg/kg, ip measured after 4 days by Q-PCR analysis; assay type: functional, organism-based; conditions: time 4.0 day
Mus musculus [28] = assay: Inhibition of CCNB1 expression in nude mouse xenografted with human SW1990 cells at 30 mg/kg, ip measured after 4 days by Western blot analysis; assay type: functional, organism-based; conditions: time 4.0 day
SW1990 [29] = assay: Induction of DNA damage in human SW1990 cells assessed as increase in gammaH2AX expression at 1 to 2 uM incubated for 4 days by DAPI staining based laser confocal microscopic analysis; assay type: functional, cell-based; conditions: dose 1-2 µM, time 4.0 day
Mus musculus [30] = assay: Inhibition of homologous recombinant repair in nude mouse xenografted with human SW1990 cells assessed as reversal of olaparib-induced ALDH1A1 expression at 30 mg/kg, ip after 4 days by Western blot analysis; assay type: functional, organism-based; conditions: time 4.0 day
Mus musculus [31] = assay: Inhibition of homologous recombinant repair in nude mouse xenografted with human SW1990 cells assessed as reversal of olaparib-induced FOXM1 expression at 30 mg/kg, ip measured after 4 days by Western blot analysis; assay type: functional, organism-based; conditions: time 4.0 day
Mus musculus [32] = assay: Inhibition of homologous recombinant repair in nude mouse xenografted with human SW1990 cells assessed as reversal of olaparib-induced MDC1 expression at 30 mg/kg, ip measured after 4 days by Western blot analysis; assay type: functional, organism-based; conditions: time 4.0 day
SW1990 [33] = assay: Effect on CDK1 gene expression in human SW1990 cells at 1 to 2 uM by Q-PCR analysis; assay type: functional, cell-based; conditions: dose 1-2 µM
SW1990 [34] = assay: Effect on E2F2 gene expression in human SW1990 cells at 1 to 2 uM by Q-PCR analysis; assay type: functional, cell-based; conditions: dose 1-2 µM
SW1990 [35] = assay: Effect on BRCA2 gene expression in human SW1990 cells at 1 to 2 uM by Q-PCR analysis; assay type: functional, cell-based; conditions: dose 1-2 µM
Mus musculus [36] = assay: Induction of DNA damage in nude mouse xenografted with human SW1990 cells assessed as increase in gammaH2AX expression at 30 mg/kg, ip incubated for 4 days by DAPI staining based laser confocal microscopic analysis; assay type: functional, organism-based; conditions: time 4.0 day

With `Cc1sc2c(c1C)C(c1ccc(Cl)cc1)=N[C@@H](CC(=O)OC(C)(C)C)c1nnc(C)n1-2` the Activity (SW1990 [1]) was 75.06%, the Activity [2] was “Non-Toxic” and the Activity (SW1990 [3]) was 24.9%. For the same compound, the Activity (SW1990 [4]) was 9.14%, the Activity (SW1990 [5]) was “Active” and the Activity (SW1990 [6]) was “Active”. The Activity (SW1990 [7]) was “Active”, the Activity (SW1990 [8]) was “Active” and the Activity (SW1990 [9]) was “Active”.
In the case of `O=C(c1cc(Cc2n[nH]c(=O)c3ccccc23)ccc1F)N1CCN(C(=O)C2CC2)CC1` [OLAPARIB], the Activity (Mus musculus [10]) is reported as “Active”, the Activity (Mus musculus [11]) is reported as “Active” and the Activity (Mus musculus [12]) is reported as “Active”. The Activity (Mus musculus [13]) was “Active”, the Activity (SW1990 [14]) was “Active” and the Activity (SW1990 [15]) was “Active”. The Activity (SW1990 [16]) was “Active”.
In the case of `Cc1noc(C)c1-c1ccc2c(c1)C(c1ccccc1)N(Cc1nc3c(C(N)=O)cccc3[nH]1)C(=O)N2C` (configuration not stated), the IC50 (SW1990 [17]) is reported as 1340 nM, the IC50 (CAPAN-1) is reported as 1710 nM and the Activity (SW1990 [18]) is reported as “Active”. The Activity [19] was “Non-Toxic”, the Activity [20] was “Non-Toxic” and the Activity [21] was “Non-Toxic”. The inhibition (Mus musculus [22]) was “Active”, the inhibition (Mus musculus [23]) was “Active” and the Activity (SW1990 [24]) was 33.6%. The Activity (SW1990 [25]) was 10.13%, the inhibition (Mus musculus [26]) was “Active” and the inhibition (Mus musculus [27]) was “Active”. For the same compound, the inhibition (Mus musculus [28]) was “Active”, the Activity (SW1990 [29]) was “Active” and the inhibition (Mus musculus [30]) was “Active”. For the same compound, the inhibition (Mus musculus [31]) was “Active”, the inhibition (Mus musculus [32]) was “Active” and the Activity (SW1990 [33]) was “Active”. For the same compound, the Activity (SW1990 [34]) was “Active”, the Activity (SW1990 [35]) was “Active” and the Activity (Mus musculus [36]) was “Active”.
